Measurements published in US20240307409A1, “ARGININE METHYLTRANSFERASE INHIBITOR AND USE THEREOF” (Cytosinlab Therapeutics Co., Ltd., priority 2021, published 2024).

Columns and labels:
PRMT1 = PRMT1 (Homo sapiens, UniProt Q99873); assay: PRMT1 enzyme activity test; type: biochemical; details: 0.5 nM PRMT1, 3H-SAM, peptide
How it was run: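 Radiometric methylation assay: 0.5 nM PRMT1 preincubated 15 min at room temperature with compound (10-point 3-fold series, 1% DMSO) in pH 8.0 Tris buffer with Tween-20 and DTT. 0.25 uM ³H-SAM and 0.1 uM biotinylated peptide then reacted 120 min. Product captured on streptavidin FlashPlate and counted; IC50 from four-parameter fit of % inhibition.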

Toledo cells = assay: Toledo cell proliferation inhibition assay; type: cell-based; details: Homo sapiens, Toledo, 144 h; six-day assay, CellTiter-Glo
How it was run: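 Toledo cells seeded at 2000 cells/well in RPMI 1640 + 10% FBS and incubated with compound for six days at 37° C, 5% CO2. Viability was then read by CellTiter-Glo luminescence after 30 min orbital mixing.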

MMA in RKO cells = assay: RKO In Cell Western assay (MMA primary antibody); type: cell-based; details: Homo sapiens, 72 hours, read-out: RKO ICW_EC30
Method: RKO was seeded at a concentration of 20,000 cells/ml into a polylysine-coated 96-well plate (Corning #3599), with 2,000 cells per well and 100 μL of culture mediumper well. 500 nL of compound was added to the 96-well plate. 3) The 96-well plate was incubated in a 37° C., 5% CO2 incubator for 72 hours. After three days, the 96-well plate was taken from the incubator, 100 μL of 8% paraformaldehyde solution was added to each well, and the plate was placed at room temperature for 15 min. After 15 min, the liquid in the plate was shaken out and the plate was washed three times with phosphate buffer (1*PBS). The liquid in the plate was shaken out and 200 μL of membrane-breaking buffer (0.1% (v/v) Tween-20 in PBS) was added and the plate was incubated on a shaker for 30 min. After half an hour, the liquid in the plate was shaken out, and blocking buffer was added and the plate was incubated for two hours at room temperature with shaking. After that, the liquid in the plate was shaken off, and the blocking solution containing primary antibody (MMA primary antibody, CST #8711S, 1:1000 v/v) was added to the 96-well plate and the plate was incubated at 4° C. overnight with shaking. The next day, the plate was washed three times with washing solution (0.05% (v/v) Tween-20 in PBS), and a blocking solution containing secondary antibody (goat anti-rabbit IgG (H+L) Invitrogen #31460, 1:10,000 v/v) was added and the plate was incubated for two hours at room temperature. Afterwards, the 96-well plate was washed four times with washing solution. The TMB mixture was added to the 96-well plate and then the plate was incubated for 15 minutes at room temperature with shaking. After that, the reaction terminating solution was added, and the value was read at OD450 nm using an microplate reader. The plate was washed three times with washing solution, and 50 μL of janusgreen staining solution was added, and the plate was incubated for 15 minutes at room temperature with shaking. The reaction was washed ten times with water until no color residue was left. 200 μL of 0.5 M hydrochloric acid solution was added to each well and the plate was incubated for 10 min at room temperature. The value was read at OD595 nm using Flexstation.
Firstly, the ratio OD450/OD595 was calculated for each well
Each plate had six DMSO negative control groups (ZPE) and six 10 μM positive control groups (HPE), and the average of the control group ratios was used to determine the percentage of activation for each test well. The compounds to be tested were triple diluted with DMSO for a total of 8 concentration points with a starting concentration of 5 μM. The equation for calculating the activation percentage of each test well was: […]

Sequence of PRMT1 (Q99873 whole entry): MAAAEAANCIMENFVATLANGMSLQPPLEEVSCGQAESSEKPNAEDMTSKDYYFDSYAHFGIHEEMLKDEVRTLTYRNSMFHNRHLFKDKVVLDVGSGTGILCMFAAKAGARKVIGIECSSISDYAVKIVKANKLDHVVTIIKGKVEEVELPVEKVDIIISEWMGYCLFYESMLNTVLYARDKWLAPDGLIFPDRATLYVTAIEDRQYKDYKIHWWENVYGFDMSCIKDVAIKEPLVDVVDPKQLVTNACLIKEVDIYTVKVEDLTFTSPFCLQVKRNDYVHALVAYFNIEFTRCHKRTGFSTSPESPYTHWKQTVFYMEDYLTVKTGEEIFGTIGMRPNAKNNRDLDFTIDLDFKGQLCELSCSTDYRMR

| SMILES | IC50 (PRMT1) | IC50 (Toledo cells) | EC30 (MMA in RKO cells) |
| --- | --- | --- | --- |
| CNCCN(C)Cc1ncccc1C1CCN(c2cc(C)cc(C)c2)CC1 [P079] | < 50 nM | < 1000 nM | < 250 nM |
| CNCCN(C)Cc1nc(C)ccc1C1CCN(c2cccc(C)c2)CC1 [P080] | 50 to 500 nM | < 1000 nM | 250 to 2500 nM |
| CNCCN(C)Cc1ccc(C)nc1C1CCN(c2cccc(C)c2)CC1 [P081, N^1,N^2-dimethyl-N1-((6-methyl-2-(1-(m-tolyl)piperidin-4-yl)pyridin-3-yl)methyl)ethane-1,2-diamine] | < 50 nM | < 1000 nM | < 250 nM |
| CNCCN(C)Cc1ccc(C(C)O)cc1C1CCN(c2cccc(C)c2)CC1 (stereo not drawn) [P083] | < 50 nM | < 1000 nM | < 250 nM |
| CNCCN(C)Cc1ncccc1C1CCN(c2cc(C)cc(F)c2)CC1 [P085] | < 50 nM | < 1000 nM | < 250 nM |
| CNCCN(C)Cc1ncccc1N1CCc2ccc(C(F)(F)F)cc2CC1 [P088, N^1,N^2-dimethyl-N^1-((3-(7-(trifluoromethyl)-4,5-dihydro-1H-benzo[d]azepin-3(2H)-yl)pyridin-2-yl)methyl)ethane-1,2-diamine] | < 50 nM | < 1000 nM | 250 to 2500 nM |
| CNCCN(C)Cc1ncccc1C1CCN(c2cccc(Cl)c2)CC1 [P089] | < 50 nM | < 1000 nM | < 250 nM |
| CNCCN(C)Cc1ncccc1C1CCN(c2cccc(C)c2)CC1 [P094] | < 50 nM | < 1000 nM | < 250 nM |
| CNCCN(C)Cc1ncccc1C1CCN(c2ccccc2C)CC1 [P095] | < 50 nM | < 1000 nM | < 250 nM |
| CNCCN(C)Cc1ncccc1N1CCc2cc(F)cc(F)c2CC1 [P106] | < 50 nM | < 1000 nM | 250 to 2500 nM |
| CNCCN(C)Cc1ncccc1N1CCc2cc(F)c(F)cc2CC1 [P107] | < 50 nM | < 1000 nM | 250 to 2500 nM |
| CNCCN(C)Cc1ncccc1N1CCc2ccccc2C(C)C1 (stereo not drawn) [P112] | < 50 nM | < 1000 nM | 250 to 2500 nM |
| CCOCC1(COCC)CCC(c2ccccc2CN(C)CCNC)CC1 [P114] | < 50 nM | < 1000 nM | < 250 nM |
| CNCCN(C)Cc1ncccc1N1CCC(Oc2cc(C(F)(F)F)cc(C(F)(F)F)c2)CC1 [P122] | 50 to 500 nM | < 1000 nM | > 2500 nM |
| CNCCN(C)Cc1ncccc1N1CCC(COc2ccc(C(F)(F)F)cc2)CC1 [P130] | < 50 nM | < 1000 nM | 250 to 2500 nM |
| CNCCN(C)Cc1ncccc1N1CCC(COc2cccc(C(F)(F)F)c2)CC1 [P131] | < 50 nM | < 1000 nM | 250 to 2500 nM |
| CCOCC1(COCC)CCN(c2ccccc2CN(C)CCNC)CC1 [P136] | < 50 nM | < 1000 nM | 250 to 2500 nM |
| CNCCN(C)Cc1ncccc1N1CCC(Oc2cc(F)cc(C(F)(F)F)c2)CC1 [P137] | < 50 nM | < 1000 nM | 250 to 2500 nM |
| CNCCN(C)Cc1ncccc1N1CCC(Oc2cccc(C(F)(F)F)c2)CC1 [P141] | < 50 nM | < 1000 nM | 250 to 2500 nM |
| CNCCN(C)Cc1ncccc1N1CCC(Oc2ccc(C(F)(F)F)cc2)CC1 [P142] | < 50 nM | < 1000 nM | 250 to 2500 nM |

| SMILES | IC50 (PRMT1) | IC50 (Toledo cells) | EC30 (MMA in RKO cells) |
| --- | --- | --- | --- |
| CNCCN(C)Cc1ncccc1C1CCN(c2cccc(OC(F)(F)F)c2)CC1 [P143] | < 50 nM | < 1000 nM | 250 to 2500 nM |
| CNCCN(C)Cc1ncccc1N1CCC(Oc2cccc(C(F)F)c2)CC1 [P147] | < 50 nM | < 1000 nM | 250 to 2500 nM |
| CNCCN(C)Cc1ncccc1N1CCC(Oc2cc(C)cc(C)c2)CC1 [P148] | < 50 nM | < 1000 nM | 250 to 2500 nM |
| CNCCN(C)Cc1ncccc1N1CCC(C)(COc2ccccc2)CC1 [P149] | < 50 nM | < 1000 nM | 250 to 2500 nM |
| CNCCN(C)Cc1ccc(-c2cn[nH]c2)cc1C1CCN(c2cccc(C)c2)CC1 [P153] | < 50 nM | < 1000 nM | < 250 nM |
| CNCCN(C)Cc1ncccc1[C@H]1CC[C@]2(CC1)COC(C)(C)C2 [P157] | < 50 nM | < 1000 nM | 250 to 2500 nM |
| CNCCN(C)Cc1ncccc1[C@H]1CC[C@@]2(CC1)COC(C)(C)C2 [P158] | < 50 nM | < 1000 nM | < 250 nM |
| CNCCN(C)Cc1ncccc1N1CCC(COc2ccccc2)CC1 [P165] | < 50 nM | < 1000 nM | 250 to 2500 nM |
| CNCCN(C)Cc1ccc2[nH]ncc2c1C1CCc2cc(F)c(F)cc2CC1 [P167, N1-((4-(2,3-difluoro-6,7,8,9-tetrahydro-5H-benzo[7]cyclopenten-7-yl)-1H-indazol-5-yl)methyl)-N1,N2-dimethylethane-1,2-diamine] | < 50 nM | < 1000 nM | < 250 nM |
| CNCCN(C)Cc1ncccc1C1CCN(c2ccccc2OC)CC1 [P170] | < 50 nM | < 1000 nM | 250 to 2500 nM |
| CNCCN(C)Cc1ncccc1N1CCC(Oc2cccc(C)c2)CC1 [P171] | < 50 nM | < 1000 nM | 250 to 2500 nM |
| CNCCN(C)Cc1ncccc1N1CCC(Oc2cccc(F)c2)CC1 [P179] | < 50 nM | < 1000 nM | 250 to 2500 nM |
| CCOCC1(Oc2cccc(C(F)(F)F)c2)CCN(c2cccnc2CN(C)CCNC)CC1 [P184] | 50 to 500 nM | < 1000 nM | > 2500 nM |
| CNCCN(C)Cc1ncccc1N1CCC(Oc2ccccc2)CC1 [P185] | < 50 nM | < 1000 nM | 250 to 2500 nM |
| CNCCN(C)Cc1ncccc1N1CCc2ccc(OC)cc2CC1 [P186] | < 50 nM | < 1000 nM | 250 to 2500 nM |
| CNCCN(C)Cc1ncccc1C1CCN(c2ccc(C#N)c(C)c2)CC1 [P187] | < 50 nM | < 1000 nM | < 250 nM |
| CNCCN(C)Cc1ccc(N)nc1C1CCc2cc(F)c(F)cc2CC1 [P198] | < 50 nM | < 1000 nM | < 250 nM |
| CNCCN(C)Cc1ncccc1C1CCN(c2ccc(C#N)cc2)CC1 [P202] | < 50 nM | < 1000 nM | 250 to 2500 nM |
| CCOCC1(COCC)CCC(c2cnccc2CN(C)CCNC)CC1 [P206] | 50 to 500 nM | 1000 to 5000 nM | 250 to 2500 nM |
